Laboratory results reported in patent publication US11684614B2, “Formulations of hydroxypyridonate actinide/lanthanide decorporation agents” (priority 2017, dated 2023).
“And” between values parts separate entries of the source, which are not always exact repeats. Equal values may be shown once.

Test: Repeated-treatment efficacy for removing an intravenous dose of 238Pu (excretion, tissue retention, clinical observations), female and male arms
Format: in vivo, Swiss-Webster mice
Details: listed as 3,4,3-LI(1,2-HOPO)
Procedure: The objective of this study was to characterize the efficacy of 3,4,3-L1(1,2-HOPO) at enhancing elimination from an internal plutonium burden in female and male Swiss-Webster mice administered a soluble citrate complex of ^238Pu and treated multiple times, starting at 24 hours after the exposure. Efficacy was evaluated by comparing the tissue contents, urinary and fecal excretions of ^238Pu in treated animals versus untreated animals.
The medical countermeasure 3,4,3-L1(1,2-HOPO) was administered parenterally (ip) or orally (po) via consecutive injections or gavages (six daily or twelve twice daily) starting at 24 hours post contamination at the following four selected doses: 30 μmol/kg ip, 150 μmol/kg po, 300 μmol/kg po, and 600 μmol/kg po (equivalent to respective approximate human doses range of […], using the accepted conversion system of mouse doses into human equivalent doses—HED—based on body surface area). Oral doses also included the permeability enhancer selected during formulation development work.
• Challenge isotope: ^238Pu • Challenge dose: 25 nCi (i.e., approximately 0.8 μCi/kg) • Route of contamination: Intravenous (iv) tail-vein • Route of treatment: Intraperitoneal Injection (ip) or Oral (po) • Frequency of treatment: Multiple (once- or twice-daily for 6 days) doses, starting 24 hr postcontamination • Treatment dose calculation: Dose calculations (mg/kg or μmol/kg) for the decorporation agent were based on the individual body weight measured after contamination. • Study Duration: 11 days, in-life
c. […] Test article and control dose formulations were prepared within 1 day of dose administration, by weighing out the appropriate amount of test article, dispersing in vehicle. For ip solutions, the test article was used alone, while for oral suspensions, a mixture of test article and excipient (90:10, w:w) was used. The pH was adjusted to 7.0-7.4 for ip administration and 5.0-5.5 for oral administration with sterile NaOH. Dose formulations were prepared at room temperature and filter-sterilized. • Storage: 2-8° C.; refrigerated; protected from light. • Characterization: The concentration of each test article formulation was verified by high-performance liquid chromatography-mass spectrometry. • Test Article Handling: Test, reference, and control article formulations were handled with the use of eye protection, gloves, and a protective laboratory coat. • Correct Dose Assurance: The test article was weighed with calibrated balances. The administration of each dose formulation was properly documented, and the amount administered to each animal recorded.
e. Experimental Procedures (In-Life Evaluations and Euthanasia) • Contamination: Single administration by intravenous (iv) tail-vein injection (0.2 mL injection volume) under isoflurane anesthesia. Three standard 0.2 mL injections were performed into polyethylene bottles and pre-loaded with aliquots of concentrated nitric acid on each injection day. Six female and six male mice were culled for necropsy 1 hr post-contamination and were used as standards. A11 standards were processed and counted together with the final samples to allow verification of the contamination dose. • Dose Administration: Single administration by intraperitoneal injection (ip) or oral gavage (po) under isoflurane anesthesia. • Mortality/Morbidity: Assessed at least once daily. • Clinical Observations: Recorded once daily (4 hr post-dose on day of treatment), or more often as clinical signs warranted. […]

For O=C(NCCCN(CCCCN(CCCNC(=O)c1cccc(=O)n1O)C(=O)c1cccc(=O)n1O)C(=O)c1cccc(=O)n1O)c1cccc(=O)n1O [3,4,3-L1(1,2-HOPO)], the “% Recovered Dose-Female Animals-Urine per Day-Day 11 Necropsy” value (animal group H, day 8, female mice) was 0.66% and 1.22% and 0.77% and 0.75% and 0.78% and 0.99% and 0.49% and 1.24%, the “% Recovered Dose-Female Animals-Urine per Day-Day 11 Necropsy” value (animal group H, day 9, female mice) was 0.40% and 0.85% and 0.75% and 0.43% and 0.47% and 0.72% and 0.37% and 0.99% and the “% Recovered Dose-Female Animals-Urine per Day-Day 11 Necropsy” value (animal group H, day 10, female mice) was 0.31% and 0.47% and 0.39% and 0.29% and 0.19% and 0.50% and 0.25% and 0.54%. For the same compound, the “% Recovered Dose-Female Animals-Urine per Day-Day 11 Necropsy” value (animal group H, day 11, female mice) was 0.25% and 0.49% and 0.32% and 0.27% and 0.37% and 0.52% and 0.29% and 0.67%, the “% Recovered Dose-Female Animals-Urine per Day-Day 11 Necropsy” value (animal group I, day 1, female mice) was 7.77% and 13.56% and 9.39% and 8.83% and 9.40% and 8.09% and 8.07% and 7.99% and the “% Recovered Dose-Female Animals-Urine per Day-Day 11 Necropsy” value (animal group I, day 3, female mice) was 5.15% and 4.91% and 4.95% and 3.52% and 6.42% and 5.63% and 7.70%. The “% Recovered Dose-Female Animals-Urine per Day-Day 11 Necropsy” value (animal group I, day 4, female mice) was 2.76% and 3.63% and 3.08% and 3.06% and 4.72% and 4.39%, the “% Recovered Dose-Female Animals-Urine per Day-Day 11 Necropsy” value (animal group I, day 5, female mice) was 2.07% and 2.10% and 1.73% and 1.67% and 1.85% and 1.81% and 1.59% and the “% Recovered Dose-Female Animals-Urine per Day-Day 11 Necropsy” value (animal group I, day 6, female mice) was 1.80% and 2.08% and 1.82% and 1.64% and 2.11% and 1.61% and 1.48%. The “% Recovered Dose-Female Animals-Urine per Day-Day 11 Necropsy” value (animal group I, day 7, female mice) was 1.20% and 1.23% and 1.07% and 1.17% and 1.43% and 1.94% and 1.45%, the “% Recovered Dose-Female Animals-Urine per Day-Day 11 Necropsy” value (animal group I, day 8, female mice) was 0.79% and 1.03% and 0.78% and 0.83% and 0.67% and 0.96% and 0.90% and the “% Recovered Dose-Female Animals-Urine per Day-Day 11 Necropsy” value (animal group I, day 9, female mice) was 0.82% and 0.67% and 0.59% and 0.61% and 0.55% and 0.69% and 0.52%. The “% Recovered Dose-Female Animals-Urine per Day-Day 11 Necropsy” value (animal group I, day 10, female mice) was 0.78% and 0.49% and 0.52% and 0.32% and 0.31% and 0.55% and 0.45%, the “% Recovered Dose-Female Animals-Urine per Day-Day 11 Necropsy” value (animal group I, day 11, female mice) was 0.67% and 0.65% and 0.58% and 0.43% and 0.46% and 0.89% and 0.44% and the “% Recovered Dose-Female Animals-Urine per Day-Day 11 Necropsy” value (animal group L, day 1, female mice) was 5.35% and 10.51% and 3.65% and 5.09% and 9.71% and 8.91% and 9.38% and 5.37%. The “% Recovered Dose-Female Animals-Urine per Day-Day 11 Necropsy” value (animal group L, day 2, female mice) was 9.62% and 11.11% and 5.95% and 8.55% and 8.68% and 12.54% and 10.49% and 9.01%, the “% Recovered Dose-Female Animals-Urine per Day-Day 11 Necropsy” value (animal group L, day 3, female mice) was 5.07% and 4.30% and 2.41% and 3.68% and 5.39% and 4.44% and 3.21% and 5.10% and the “% Recovered Dose-Female Animals-Urine per Day-Day 11 Necropsy” value (animal group L, day 4, female mice) was 4.52% and 3.28% and 1.82% and 3.38% and 3.96% and 3.67% and 4.12% and 5.10%. The “% Recovered Dose-Female Animals-Urine per Day-Day 11 Necropsy” value (animal group L, day 5, female mice) was 2.41% and 2.57% and 6.05% and 2.26% and 2.77% and 2.39% and 2.74% and 3.54%, the “% Recovered Dose-Female Animals-Urine per Day-Day 11 Necropsy” value (animal group L, day 6, female mice) was 1.58% and 1.95% and 4.31% and 3.12% and 2.44% and 1.42% and 1.86% and 2.87% and the “% Recovered Dose-Female Animals-Urine per Day-Day 11 Necropsy” value (animal group L, day 7, female mice) was 2.68% and 4.39% and 2.50% and 2.41% and 2.29% and 1.58% and 2.14% and 2.03%. The “% Recovered Dose-Female Animals-Urine per Day-Day 11 Necropsy” value (animal group L, day 8, female mice) was 2.01% and 6.27% and 1.63% and 1.89% and 1.73% and 1.02% and 1.29% and 1.12%, the “% Recovered Dose-Female Animals-Urine per Day-Day 11 Necropsy” value (animal group L, day 9, female mice) was 0.99% and 3.81% and 0.96% and 1.05% and 0.50% and 0.53% and 0.57% and the “% Recovered Dose-Female Animals-Urine per Day-Day 11 Necropsy” value (animal group L, day 10, female mice) was 1.29% and 1.70% and 0.71% and 1.04% and 0.44% and 0.60% and 0.41%. For the same compound, the “% Recovered Dose-Female Animals-Urine per Day-Day 11 Necropsy” value (animal group L, day 11, female mice) was 0.70% and 1.28% and 0.58% and 0.75% and 0.68% and 0.40% and 0.72% and 0.59%, the “% Recovered Dose-Female Animals-Urine per Day-Day 11 Necropsy” value (animal group M, day 1, female mice) was 8.44% and 9.22% and 6.58% and 5.72% and 8.33% and 7.11% and 8.76% and 7.62% and the “% Recovered Dose-Female Animals-Urine per Day-Day 11 Necropsy” value (animal group M, day 2, female mice) was 6.23% and 7.89% and 7.02% and 10.02% and 10.31% and 12.05% and 7.08% and 9.14%. The “% Recovered Dose-Female Animals-Urine per Day-Day 11 Necropsy” value (animal group M, day 3, female mice) was 2.30% and 3.50% and 4.87% and 4.65% and 3.13% and 1.94% and 3.83% and 3.56%, the “% Recovered Dose-Female Animals-Urine per Day-Day 11 Necropsy” value (animal group M, day 4, female mice) was 3.18% and 2.79% and 3.46% and 4.28% and 3.48% and 2.77% and 2.90% and 3.40% and the “% Recovered Dose-Female Animals-Urine per Day-Day 11 Necropsy” value (animal group M, day 5, female mice) was 1.90% and 2.00% and 3.07% and 4.53% and 2.38% and 1.31% and 2.10% and 2.52%. The “% Recovered Dose-Female Animals-Urine per Day-Day 11 Necropsy” value (animal group M, day 6, female mice) was 2.20% and 3.65% and 3.85% and 2.48% and 2.57% and 1.91% and 3.39% and 2.63%, the “% Recovered Dose-Female Animals-Urine per Day-Day 11 Necropsy” value (animal group M, day 7, female mice) was 1.09% and 4.12% and 3.24% and 1.63% and 2.05% and 0.95% and 2.29% and 2.08% and the “% Recovered Dose-Female Animals-Urine per Day-Day 11 Necropsy” value (animal group M, day 8, female mice) was 1.16% and 1.96% and 1.85% and 1.17% and 1.59% and 1.23% and 1.36% and 1.47%. The “% Recovered Dose-Female Animals-Urine per Day-Day 11 Necropsy” value (animal group M, day 9, female mice) was 0.89% and 0.80% and 0.95% and 0.56% and 0.83% and 0.91% and 1.12% and 1.20% and the “% Recovered Dose-Female Animals-Urine per Day-Day 11 Necropsy” value (animal group M, day 10, female mice) was 0.48% and 0.61% and 0.71% and 0.70% and 1.03% and 1.20% and 1.18%.
